Publication PMC7158045 (BMC Plant Biology, 2020)
Like-named read-outs stand apart in the source and are kept apart here.

How the values were obtained:
Test in all cases: biochemical
ZmDRIK1-R187-P492 = biological target: T1, ZmDRIK1-R187-P492 (Zea mays, UniProt C0P4K9)
T1 construct: kinase domain, R187-P492
T1 sequence (C0P4K9 1-514): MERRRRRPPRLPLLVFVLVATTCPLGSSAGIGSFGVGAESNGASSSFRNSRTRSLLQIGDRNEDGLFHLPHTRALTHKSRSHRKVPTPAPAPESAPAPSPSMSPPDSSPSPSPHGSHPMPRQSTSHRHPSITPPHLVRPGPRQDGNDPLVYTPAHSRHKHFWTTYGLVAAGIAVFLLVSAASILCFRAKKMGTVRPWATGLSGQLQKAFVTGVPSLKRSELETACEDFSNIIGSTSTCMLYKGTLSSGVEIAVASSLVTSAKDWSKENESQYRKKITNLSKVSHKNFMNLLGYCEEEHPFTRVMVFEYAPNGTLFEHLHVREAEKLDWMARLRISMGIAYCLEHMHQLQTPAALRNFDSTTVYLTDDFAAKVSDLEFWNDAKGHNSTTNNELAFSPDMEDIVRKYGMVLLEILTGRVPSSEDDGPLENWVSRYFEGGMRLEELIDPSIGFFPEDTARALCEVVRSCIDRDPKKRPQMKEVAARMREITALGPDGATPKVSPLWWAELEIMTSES

ZmDRIK1-K217-S514 = biological target: T2, ZmDRIK1-K217-S514 (Zea mays, UniProt C0P4K9)
T2 construct: kinase domain, K217-S514
T2 sequence (C0P4K9 1-514): T1 sequence (C0P4K9 1-514)

[1] = biological target: T3, ZmDRIK1 (DROUGHT RESPONSIVE INACTIVE KINASE 1), kinase domain (Zea mays, UniProt C0P4K9)
T3 construct: gene ZEAMMB73_Zm00001d028770; ZmDRIK1-KD R187-S514 (kinase domain)
T3 sequence (C0P4K9 187-514): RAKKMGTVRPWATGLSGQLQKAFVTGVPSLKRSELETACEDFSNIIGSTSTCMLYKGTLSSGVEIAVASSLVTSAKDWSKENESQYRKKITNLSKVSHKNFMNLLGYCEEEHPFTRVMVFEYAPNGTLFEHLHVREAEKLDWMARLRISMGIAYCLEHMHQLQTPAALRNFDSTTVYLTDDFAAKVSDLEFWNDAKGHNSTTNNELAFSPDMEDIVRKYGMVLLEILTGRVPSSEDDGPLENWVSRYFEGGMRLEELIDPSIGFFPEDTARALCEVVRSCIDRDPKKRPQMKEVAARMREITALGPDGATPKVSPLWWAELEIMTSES

ZmDRIK1-K217-P492 = biological target: T4, ZmDRIK1-K217-P492 (Zea mays, UniProt C0P4K9)
T4 construct: kinase domain, K217-P492
T4 sequence (C0P4K9 1-514): T1 sequence (C0P4K9 1-514)

[2] = read-out: dTm B, DSF, Boltzmann fit, 0.1% DMSO
[3] = read-out: dTm B, sheet ZmDRIK1-K217-S514;, DSF, Boltzmann fit, 0.1% DMSO
[4] = read-out: dTm B, sheet ZmDRIK1-R187-S514;, DSF, Boltzmann fit, 0.1% DMSO
[5] = read-out: dTm B, sheet ZmDRIK1-K217-P492;, DSF, Boltzmann fit, 0.1% DMSO

ΔTm at 10 µM (ZmDRIK1-R187-P492; [2])	ΔTm at 10 µM (ZmDRIK1-K217-S514; [3])	ΔTm at 10 µM [1, 4]	ΔTm at 10 µM (ZmDRIK1-K217-P492; [5])	ΔTm at 10 µM (ZmDRIK1-R187-P492; read-out: dTm B)	ΔTm at 10 µM (ZmDRIK1-K217-S514; read-out: dTm B)	ΔTm at 10 µM ([1]; read-out: dTm B)	ΔTm at 10 µM (ZmDRIK1-K217-P492; read-out: dTm B)	Compound
0.579 °C	1.35 °C	-25.6 °C	-0.527 °C					CC(C)(O)CC(=O)NCCn1ccc2ncnc(Nc3ccc(Oc4cccc(C(F)(F)F)c4)c(Cl)c3)c21 [TAK-285]
-0.521 °C	-2.01 °C	1.64 °C	3.91 °C					N#Cc1c(Oc2ccc(F)c(NC(=O)Cc3cccc(C(F)(F)F)c3)c2)ccc2nc(NC(=O)C3CC3)sc12 [TAK-632]
-0.496 °C	-0.442 °C	-0.0163 °C	-1.08 °C					CCc1nc(-c2cccc(C)c2)c(-c2ccnc(NC(=O)c3ccccc3)c2)s1 [TAK-715]
-0.375 °C	-0.514 °C	-0.814 °C	-1.32 °C					Cn1c(=O)c(F)c(Nc2ccc(I)cc2F)c2c(=O)n(C[C@@H](O)CO)cnc21 [TAK-733]
-0.0329 °C	-0.0934 °C	-0.544 °C	-0.353 °C					CCS(=O)(=O)c1cccc(-c2cc(C(=O)NC3CCN(C)CC3)c(C)c3[nH]c4ncc(C)cc4c23)c1 [TAK-901]
-0.136 °C	-0.0845 °C	-0.944 °C	-0.973 °C					Cc1cc(C(C)Nc2ccccc2)c2nc(N3CCOCC3)cc(=O)n2c1 (stereo not shown) [TGX-221]
				-0.155 °C	-0.395 °C	-0.768 °C	0.685 °C	Cc1ccccc1CN1C(=O)C2=C(CCN(Cc3ccccc3)C2)N2CCN=C12 [TIC10]
-0.00936 °C	-0.297 °C	-0.75 °C	-0.79 °C					Nc1cccc(-c2cc3c(Oc4cccc(O)c4)ncnc3[nH]2)c1 [TWS119]
-0.26 °C	-0.669 °C	-0.715 °C	-0.928 °C					CS(=O)(=O)c1ccc(-c2cnc(N)c(C(=O)Nc3ccccc3)n2)cc1 [VE-821]
-0.196 °C	-0.454 °C	-0.91 °C	-0.634 °C					CNCc1ccc(-c2cc(-c3nc(-c4ccc(S(=O)(=O)C(C)C)cc4)cnc3N)on2)cc1 [VE-822]
-0.499 °C	-0.374 °C	-0.444 °C	-0.792 °C					NC(=O)c1ccc(N(C(N)=O)c2c(F)cccc2F)nc1-c1ccc(F)cc1F [VX-702]
-0.394 °C	-0.414 °C	-0.881 °C	-1.03 °C					O=c1ncn2nc(Sc3ccc(F)cc3F)ccc2c1-c1c(Cl)cccc1Cl [VX-745]

Continued, molecule first:

Compound	ΔTm at 10 µM (ZmDRIK1-R187-P492; [2])	ΔTm at 10 µM (ZmDRIK1-K217-S514; [3])	ΔTm at 10 µM [1, 4]	ΔTm at 10 µM (ZmDRIK1-K217-P492; [5])	ΔTm at 10 µM (ZmDRIK1-R187-P492; read-out: dTm B)	ΔTm at 10 µM (ZmDRIK1-K217-S514; read-out: dTm B)	ΔTm at 10 µM ([1]; read-out: dTm B)	ΔTm at 10 µM (ZmDRIK1-K217-P492; read-out: dTm B)
CN1CCN(CCOc2cc(OC3CCOCC3)c3c(Nc4c(Cl)ccc5c4OCO5)ncnc3c2)CC1 [Saracatinib (AZD0530)]	-0.196 °C	-0.253 °C	-0.646 °C	-1.11 °C				
Cn1cnc2c(F)c(Nc3ccc(Br)cc3Cl)c(C(=O)NOCCO)cc21 [Selumetinib (AZD6244)]	-0.268 °C	-0.433 °C	-0.69 °C	-1.37 °C				
O=C1c2ccc(Nc3ccc(F)cc3F)cc2CCc2ccc(OC[C@H](O)CO)cc21 [Skepinone-L]	-0.481 °C	-0.642 °C	-0.803 °C	-0.992 °C				
CN1CCN(c2nc(C3=C(c4c[nH]c5ccccc45)C(=O)NC3=O)c3ccccc3n2)CC1 [Sotrastaurin]	-0.608 °C	-0.412 °C	-0.541 °C	-0.642 °C				
CN[C@@H]1C[C@H]2O[C@@](C)([C@@H]1OC)n1c3ccccc3c3c4c(c5c6ccccc6n2c5c31)C(=O)NC4 [Staurosporine]	-0.154 °C	-0.232 °C	-0.601 °C	-0.631 °C				
CCN(CC)CCNC(=O)c1c(C)[nH]c(/C=C2\C(=O)Nc3ccc(F)cc32)c1C [Sunitinib Malate]	-0.348 °C	-0.287 °C	-0.745 °C	-0.864 °C				
CNC(=O)c1ccccc1Nc1nc(Nc2ccc(N3CCOCC3)cc2OC)ncc1Cl [TAE226 (NVP-TAE226)]	-0.231 °C	-0.321 °C	-0.781 °C	-0.725 °C				
COc1ccc(C(=O)Nc2sc3c(c2C(N)=O)CCCC3)cc1OC [TCS 359]	-0.318 °C	-0.549 °C	0.606 °C	-0.245 °C				
CCN1/C(=C/C(C)=O)Sc2ccc(OC)cc21 [TG003]	-0.291 °C	-0.33 °C	-0.488 °C	-1.11 °C				
Nc1nc(N)c2nc(-c3cccc(O)c3)c(-c3cccc(O)c3)nc2n1 [TG100-115]	-0.347 °C	-0.395 °C	-0.852 °C	-0.6 °C				
Cc1cnc(Nc2ccc(N3CCN(C)CC3)cc2)nc1Nc1cccc(S(=O)(=O)NC(C)(C)C)c1 [TG101209]	-0.311 °C	-0.317 °C	-0.897 °C	-0.984 °C				
Cc1cnc(Nc2ccc(OCCN3CCCC3)cc2)nc1Nc1cccc(S(=O)(=O)NC(C)(C)C)c1 [TG101348 (SAR302503)]	-0.567 °C	-0.238 °C	-0.804 °C	-0.974 °C				
Cc1[nH]c(/C=C2\C(=O)Nc3ccccc32)c(C)c1CCC(=O)O [TSU-68 (SU6668)]	-0.199 °C	-0.226 °C	-0.64 °C	-1.14 °C				
COc1cc2c(N3CCN(C(=O)Nc4ccc(OC(C)C)cc4)CC3)ncnc2cc1OCCCN1CCCCC1 [Tandutinib (MLN518)]	-0.158 °C	-0.303 °C	-0.869 °C	-0.971 °C				
CNC(=O)c1cc(COc2nnc(Nc3ccc(Cl)cc3)c3ccoc23)ccn1 [Telatinib]	-0.226 °C	-0.252 °C	-0.862 °C	-0.739 °C				
CO[C@H]1C[C@@H]2CC[C@@H](C)[C@@](O)(O2)C(=O)C(=O)N2CCCC[C@H]2C(=O)O[C@H]([C@H](C)C[C@@H]2CC[C@@H](OC(=O)C(C)(CO)CO)[C@H](OC)C2)CC(=O)[C@H](C)/C=C(\C)[C@@H](O)[C@@H](OC)C(=O)[C@H](C)C[C@H](C)/C=C/C=C/C=C/1C [Temsirolimus (CCI-779)]	-0.393 °C	-0.361 °C	-2.07 °C	-1.36 °C				
O=C(NCc1ccccc1)c1csc(Nc2ccncn2)n1 [Thiazovivin]	-0.171 °C	-0.368 °C	-0.845 °C	-0.879 °C				
COc1ccc2cc(-c3nc(-c4ccc([S+](C)[O-])cc4)[nH]c3-c3ccncc3)ccc2c1 (stereo not shown) [Tie2 kinase inhibitor]	-0.238 °C	-4.75 °C	-0.713 °C	-1.05 °C				
COc1cc2nccc(Oc3ccc(NC(=O)Nc4cc(C)on4)c(Cl)c3)c2cc1OC [Tivozanib (AV-951)]	-3.15 °C	-0.402 °C	-0.0903 °C	-3.26 °C				
CC(=O)Nc1cccc(-n2c(=O)n(C3CC3)c(=O)c3c(Nc4ccc(I)cc4F)n(C)c(=O)c(C)c32)c1 [Trametinib (GSK1120212)]	-0.327 °C	-0.496 °C	-0.482 °C	-1.15 °C				
CC(C)(C)c1cc(C=C(C#N)C#N)cc(C(C)(C)C)c1O [Tyrphostin 9]	-0.79 °C	-0.346 °C	-0.564 °C	-0.298 °C				
CC(C)(C)c1cc(/C=C(\C#N)C(N)=S)cc(C(C)(C)C)c1O [Tyrphostin AG 879]	-0.277 °C	0.259 °C	-0.339 °C	-0.358 °C				
COc1cc2ncc(-c3ccccc3)nc2cc1OC [Tyrphostin AG 1296]	-0.166 °C	-0.375 °C	-0.879 °C	-0.341 °C				
N#CC(=C(/N)Sc1ccccc1N)/C(C#N)=C(\N)Sc1ccccc1N [U0126-EtOH]	-0.611 °C	-0.582 °C	-1.26 °C	-1.09 °C				
Cc1cc(Nc2cc(N3CCN(C)CC3)nc(Sc3ccc(NC(=O)C4CC4)cc3)n2)n[nH]1 [VX-680 (Tozasertib)]	-0.37 °C	-0.694 °C	-0.713 °C	-1.16 °C				
